US6407132B1, “Substituted imidazole derivatives and their use as histamine H3 receptor ligands” (James Black Foundation Limited, priority 1997, dated 2002)

Experiments:
[1] = target: T1, Histamine H3 receptor (Cavia porcellus, UniProt Q9JI35); assay: Histamine H3 Radioligand Binding Assay - Guinea Pig Cortex ([3H]-R-α-methylhistamine); parameters: The cortex was dissected, weighed and homogenised in ice-cold 20 mM Hepes-NaOH buffer; from tissue; host or cells: guinea pig brain cortex membranes; conditions: guinea pig cortex membranes; 0.1 nM [3H]-R-α-methylhistamine; typical variance ±0.12 log units; read-out: pKI (binding assay) - cortex (converted)
T1 sequence (Q9JI35 whole entry): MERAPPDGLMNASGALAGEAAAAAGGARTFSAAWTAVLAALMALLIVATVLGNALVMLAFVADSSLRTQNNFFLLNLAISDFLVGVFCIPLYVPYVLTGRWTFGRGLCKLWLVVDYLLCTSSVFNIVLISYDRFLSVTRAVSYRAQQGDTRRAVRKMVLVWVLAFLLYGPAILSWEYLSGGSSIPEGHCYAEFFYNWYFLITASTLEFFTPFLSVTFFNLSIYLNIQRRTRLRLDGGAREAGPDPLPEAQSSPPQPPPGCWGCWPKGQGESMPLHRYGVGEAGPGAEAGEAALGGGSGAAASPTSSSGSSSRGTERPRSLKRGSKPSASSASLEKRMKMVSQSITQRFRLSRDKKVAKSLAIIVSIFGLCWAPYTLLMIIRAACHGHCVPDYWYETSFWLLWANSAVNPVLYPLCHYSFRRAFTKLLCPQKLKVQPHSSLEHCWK
Protocol: Histamine H3 Radioligand Binding Assay—Guinea Pig Cortex
Male Dunkin Hartley guinea pigs (200-300 g) were used. The whole brain was removed and immediately placed in ice-cold 20 mM Hepes-NaOH buffer (pH7.4 at 21±3° C.). The cortex was dissected, weighed and homogenised in ice-cold 20 mM Hepes-NaOH buffer (pH7.4 at 21±3° C.) (50 ml/guinea-pig cortex) using a polytron (Kinematica AG, PT-DA 3020/2TS, 3×3s). The homogenate was centrifuged at 100×g for 5 min and the supernatants pooled and stored at 4° C. The pellets were rehomogenised in fresh ice-cold buffer (80 ml) and recentrifuged (100×g for 5 min). The supernatants were pooled and pellets rehomogenised and recentrifuged (100×g for 5 min). All supernatants were pooled and centrifuged at 39,800×g for 12 min at 4° C. The final pellet was resuspended in 20 mM Hepes-NaOH buffer (pH7.4 at 21±3° C.) to a tissue concentration of 7.5 mg.ml^−1, using a teflon-in-glass homogeniser.
Incubation Conditions and Data Analysis
These were essentially identical to those used for the guinea pig ileum myenteric plexus assay described above, except that the final assay concentration of [^3H]-R-α-methylhistamine was 0.1 nM. Typical variance in this binding assay is ±0.12 log units.

[2] = target: T1, Histamine H3 receptor; assay: ileal longitudinal muscle, myenteric plexus functional assay (shift of R-(α)-methylhistamine E/[A] curves, Schild); format: cell-based; parameters: the longitudinal muscle layer and adhering myenteric plexus was teased away; from tissue; host or cells: guinea pig ileal longitudinal muscle with myenteric plexus; conditions: guinea pig ileum longitudinal muscle myenteric plexus, electrically stimulated; antagonism of R-(α)-methylhistamine; typical variance ±0.15 log units; read-out: pKB (functional assay) - ileum (converted)
Protocol: The biological activity of the compounds of the examples was measured using the ileal longitudinal muscle, myenteric plexus assay described by Paton and Aboo Zar (J. Physiol. 1968, 194, 13-33). Male Dunkin-Hartley guinea pigs (250-300 g) were employed. Briefly, a 50 cm portion of ileum proximal to the caecum was removed, after discarding the terminal 20 cm. Ileal segments (3 cm) were cleaned by passing Krebs-Henseleit buffer containing 3 μM mepyramine gently through the ileum using a Pasteur pipette (size: 13.8 cm length, 0.65 cm diameter). To avoid unnecessary damage to the tissue, Krebs-Henseleit buffer was passed through the ileal segment, while it was lying horizontally on a petri dish. Therefore, the ileum was not over-distended and the buffer flowed through with ease. Each segment was then passed over a Pasteur pipette and the longitudinal muscle layer and adhering myenteric plexus was teased away using moist cotton wool, by stroking tangentially away from the mesenteric attachment. The tissues were suspended in 20 ml organ baths containing Krebs-Henseleit buffer at 37±1° C. and gassed with 95% CO2/5% O2. The tissues were ligated to two parallel stainless steel wires, situated between two platinum electrodes (0.76 cm length, 0.06 cm diameter). All measurements were recorded isometrically (Grass FTO3 transducer). Following an initial loading tension of 1 g, the tissues were stimulated with electrical pulses at a frequency of 0.1 Hz and a pulse duration of 0.5 msec, as described by Kosterlitz & Watt (Br. J. Pharmacol. 1968, 266-276). Initially, the tissues were stimulated at supramaximal (1.3 fold times maximal) voltage for a period of 30 min and then the tissues were washed and re-stimulated. A “sighter dose” of the selective histamine H3-receptor agonist, R-(α)-methylhistamine (0.3 μM) (Arrang et al. Nature, 1987, 117-123), was administered. Upon generation of response, the “sighter dose” was removed from the tissues by “washout” (6 washes over 60 min) and during this period the electrical stimulation was switched off. The tissues were then re-stimulated and allowed to stabilise prior to the addition of drug treatments, which were allocated on a randomised block basis to the organ baths. Following the incubation period, a single cumulative E/[A] curve was obtained. The experimental E/[A] curve data was expressed as the percentage inhibition of the peak height of electrically-stimulated contraction. Antagonist affinity values were calculated from the degree of rightward shift of the R-(α)-methylhistamine E/[A] curves using Schild's methods (Arunlakshana & Schild Br. J. Pharmacol. 1959, 48-58). Typical variance in this assay is ±0.15 log units.

[3] = target: T1, Histamine H3 receptor; assay: Histamine H3 Radioligand Binding Assay - Guinea Pig Ileum ([3H]-R-α-methylhistamine); parameters: The cortex was dissected, weighed and homogenised in ice-cold 20 mM Hepes-NaOH buffer; from tissue; host or cells: guinea pig brain cortex membranes; conditions: guinea pig ileum longitudinal muscle myenteric plexus membranes; 3 nM [3H]-R-α-methylhistamine; typical variance 0.12 log units; read-out: pKI (binding assay) - ileum (converted)
Protocol: Histamine H3 Radioligand Binding Assay—Guinea Pig Ileum
Male Dunkin Hartley guinea pigs (200-300 g) were used. The small intestine was rapidly removed (cut ˜5 cm from caecum and 5 cm from stomach) and placed in ice-cold 20 mM Hepes-NaOH buffer (pH7.4 at 21±3° C.). The tissue was cut into ˜10 cm segments, flushed through with ice-cold 20 mM Hepes-NaOH buffer and placed in a beaker containing fresh buffer at 4° C. 10 cm segments of ileum were threaded onto a glass pipette and the longitudinal muscle myenteric plexus was peeled away from the circular muscle using damp cotton-wool. […]
Guinea pig ileum longitudinal muscle myenteric plexus membranes (400μl) were incubated for 165 min at 21±3° C. in a final volume of 500 μl with 20 mM Hepes-NaOH buffer containing [^3H]-R-α-methylhistamine (50 μl; 3 nM) and competing compound. […] The filters were washed (3×3 ml) with ice-cold 50 mM Tris-HCl (pH6.9 at 21±3° C.), transferred into scintillation vials, 5 ml liquid scintillation cocktail was added and after 4 hours the bound radioactivity was determined by counting (4 min) in a Beckman liquid scintillation counter.
Data are analysed using GraphPad prism and the general equation for a competition curve with variable Hill slope (nH). […]
KD is the equilibrium dissociation constant for the radioligand determined by saturation experiments. […]

Compound | Ki [1] [nM] | Kb [2] [nM] | Ki [3] [nM]
O=S(=O)(Cc1ccc(Cl)cc1)NCCc1ccc(Cc2c[nH]cn2)cc1 [Example 7, C-(4-Chloro-phenyl)-N-{2-[4-(1H-imidazol-4-ylmethyl)-phenyl]-ethyl}-methanesulfonamide] | 288 | 955 | 
O=S(=O)(Cc1ccc(Cl)cc1)Nc1ccc(-c2c[nH]cn2)cc1 [Example 5, C-(4-Chloro-phenyl)-N-[4-(1H-imidazol-4-yl)-pheriyl]-methanesulfonamide] | 1410 |  | 
O=S(=O)(Cc1ccc(Cl)cc1)Nc1ccc(Cc2c[nH]cn2)cc1 [Example 4, C-(4-Chloro-phenyl)-N-[4-(1H-imidazol-4-ylmelhyl)-phenyl]-methanesulfonamide] | 93.3 | 407 | 
O=S(=O)(Cc1ccc(Cl)cc1)NCc1cccc(Cc2c[nH]cn2)c1 [Example 6, C-(4-Chloro-phenyl)-N-[3-(1H-imidazol-4-ylmethyl)-benzyl]-methanesulfonamide] | 372 |  | 

The next lines start with the values.

Ki [1] [nM] | Kb [2] [nM] | Ki [3] [nM] | Compound
15.8 | 112 |  | O=S(=O)(NCc1ccc(Cl)cc1)NCc1ccc(Cc2c[nH]cn2)cc1 [Example 3, N-(4-Chloro-benzyl)-N′-[4-(1H-imidazol-4-ylmethyl)-benzyl]-sulfamide]
28.8 | 70.8 | 141 | O=S(=O)(Cc1ccc(Cl)cc1)NCc1ccc(Cc2c[nH]cn2)cc1 [Example 2, C-(4-Chlorophenyl)-N-[4-(1H-imidazol-4-ylmethyl)-benzyl]-methanesulfonamide]
324 | 229 | 339 | O=S(=O)(NCc1ccc(Cc2c[nH]cn2)cc1)c1ccc2ccccc2c1 [Example 1]
